Reference: the supplement of paper PMC5908809

Key:
Experiment in all cases: relative IC50 (inflection point of fitted viability curve, relative to fitted max inhibition); higher = less sensitive
Conditions in all cases: 72 h
[1] = test system: KAI3 (IL-2 2.5 ng/mL)
Experimental: (§1)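 Drug sensitivity and resistance testing: 5 concentrations over a 10,000-fold range, 72 h at 37 °C, viability by CellTiter-Glo normalised to DMSO and benzethonium chloride controls. IC50 is the inflection point of a logistic fit (min fixed at 0, max fitted), so it is relative to the fitted maximal inhibition. Kept only where fitted max inhibition is at least 50%.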

[2] = test system: SNK-6 (IL-2 2.5 ng/mL)
Experimental: as §1

[3] = test system: YT (IL-2 2.5 ng/mL)
Experimental: as §1

[4] = test system: normal primary NK cells, pool 1 (3 donors) (IL-2 2.5 ng/mL)
Experimental: as §1

[5] = test system: normal primary NK cells, pool 2 (3 donors) (IL-2 2.5 ng/mL)
Experimental: as §1

[6] = test system: NK-92 (IL-2 2.5 ng/mL)
Experimental: as §1

[7] = test system: IMC-1 (IL-2 20 ng/mL)
Experimental: as §1

[8] = test system: KHYG-1 (IL-2 2.5 ng/mL)
Experimental: as §1

[9] = test system: normal primary NK cells, pool 1 (3 donors), resting (IL-2 0 ng/mL)
Experimental: as §1

[10] = test system: NK-YS (IL-2 2.5 ng/mL)
Experimental: as §1

[11] = test system: DERL-7 (IL-2 2.5 ng/mL)
Experimental: as §1

[12] = test system: NKL (IL-2 2.5 ng/mL)
Experimental: as §1

[13] = test system: normal primary NK cells, pool 3 (3 donors) (IL-2 2.5 ng/mL)
Experimental: as §1

Row | SMILES | relative IC50 [1] [µM] | relative IC50 [2] [µM] | relative IC50 [3] [µM] | relative IC50 [4] [µM] | relative IC50 [5] [µM] | relative IC50 [6] [µM] | relative IC50 [7] [µM] | relative IC50 [8] [µM] | relative IC50 [9] [µM] | relative IC50 [10] [µM] | relative IC50 [11] [µM] | relative IC50 [12] [µM] | relative IC50 [13] [µM]
1 | O=C(/C=C\n1cnc(-c2cc(C(F)(F)F)cc(C(F)(F)F)c2)n1)NNc1cnccn1 [Selinexor] | 0.0933 | 0.0483 | 0.0641 | 0.0767 | 0.0524 | 0.168 | 0.497 | 0.152 | 0.0242 | 0.166 | 0.0651 | 0.106 | 0.0808
2 | COC(=O)C[C@](O)(CCCC(C)(C)O)C(=O)O[C@@H]1C(OC)=C[C@]23CCCN2CCc2cc4c(cc2[C@H]13)OCO4 [Omacetaxine] | 0.00632 | 0.00673 | 0.0175 | 0.00662 | 0.00502 | 0.0257 | 0.0336 | 0.0352 | 0.00115 | 0.0307 | 0.00754 | 0.0298 | 0.0106
3 | COc1cc([C@@H]2c3cc4c(cc3[C@@H](O[C@@H]3O[C@@H]5CO[C@@H](c6cccs6)O[C@H]5[C@H](O)[C@H]3O)[C@H]3COC(=O)[C@H]23)OCO4)cc(OC)c1O [Teniposide] | 0.0188 | 0.032 | 0.122 | 0.534 | 0.965 | 0.0841 | 0.0203 | 0.0278 | 0.139 | 0.0133 | 0.0155 | 0.01 | 1.25
4 | COc1cc2c(NC3CCN(C(C)C)CC3)nc(C3CCCCC3)nc2cc1OCCCN1CCCC1 [UNC0638] | 0.528 | 1.6 | 3.05 | 3.45 | 3.07 | 1.66 | 2.78 | 2.54 | 2.29 | 2.57 | 2.12 | 2.29 | 3.36
5 | C[C@@H]1C[C@H]2O[C@@H]2/C=C\C=C\C(=O)Cc2c(Cl)c(O)cc(O)c2C(=O)O1 [Radicicol] | 0.0721 | 0.0818 | 0.423 | 0.126 | 0.0752 | 0.13 | 0.31 | 0.209 | 0.52 | 0.198 | 0.0373 | 0.134 | 0.132
6 | O=C(/C=C/c1cccnc1)NCCCCC1CCN(C(=O)c2ccccc2)CC1 [Daporinad] | 0.00388 | 0.00075 | 0.00627 | 0.00052 | 0.00063 | 0.00607 | 0.00361 | 0.00301 | 0.00029 | 0.00077 | 0.00127 | 0.00257 | 0.00087
7 | CCOC(=O)CCNc1cc(N2CCc3ccccc3CC2)nc(-c2ccccn2)n1 [GSK-J4] | 3.34 | 3.02 | 2.67 | 2.1 | 3.28 | 0.837 | 1.23 | 1.74 | 1.28 | 3.32 | 2.48 | 3.37 | 2.11
